Patent publication US4507315A, “Hypoglycaemic and hypolipidaemic benzamide substituted (1H-) imidazole derivatives and compositions” (May & Baker Limited, priority 1982, dated 1985)
Several values for one entry are separate records, joined by “and”; a condition that tells them apart may be missing. Equal values may be shown once.

How the values were obtained:
Type in all cases: in vivo
[1] = system: Diabetic mice (strain C 57, black, MRI derived Obese/Obese); assay: Hypoglycaemic Activity in Diabetic Mice (oral, 3 days); details: for change in vivo at 200 mg/kg / change in blood glucose compared with control: 200 mg/kg body weight per day; for change in vivo at 30 mg/kg: 30 mg/kg body weight per day; for change in vivo at 100 mg/kg: 100 mg/kg body weight per day
Protocol: Diabetic mice (strain C 57, black, MRI derived Obese/Obese) of either sex each weighing between 45 and 70 g were given the test compound orally in tragacanth mucilage at a dose of 5,10,30,100,200 or 500 mg/kg body weight per day for 3 days. Three hours after the last dose the animals were killed with carbon dioxide and bled by cardiac puncture. The blood glucose levels were assessed by the glucose-oxidase method of GOD-Perid. Control groups (given doses of unmedicated tragacanth mucilage) were included with each test. The percentage reduction in the concentration of blood glucose was calculated by comparison with the simultaneous controls, for each of the test compounds used.

[2] = system: Male Wistar rats; assay: Hypolipidaemic Activity in Rats; details: oral, last 3 days of 10-day cholesterol/cholic acid diet
Protocol: Male Wistar rats each weighing between 120 and 150 g were caged in groups of eight and fed a pelleted diet incorporating 0.5% w/w cholesterol and 0.25% w/w cholic acid for 10 days. For the last 3 days of that period the test compound was administered orally at a dose of 30, 100 or 200 mg/kg body weight per day in tragacanth mucilage.
At noon on day 10 the animals were killed by inhalation of carbon dioxide from solid carbon dioxide. A sample of blood was removed by cardiac puncture and the serum cholesterol and serum triglycerides were analysed by means of an auto-analyser.
Control group (receiving only doses of unmedicated tragacanth mucilage) were included with each test.
The percentage reductions in the concentrations of serum cholesterol and serum triglycerides were calculated by comparison with the simultaneous controls, for each concentration of the test compound used.

[3] = system: Diabetic mice (strain C 57, black, MRI derived Obese/Obese); assay: Hypoglycaemic Activity in Diabetic Mice (oral, 8 days, W hydrochloride); details: male diabetic mice
Protocol: Groups of diabetic mice (strain C 57, black, MRI derived Obese/Obese) of male sex of mean weight between 43 and 46 g were given the test compound W hydrochloride orally in tragacanth mucilage at a dose of 2, 5 or 100 mg/kg body weight per day for 8 days. Three hours after the last dose the animals were bled from the tail vein. The blood glucose levels were assessed by the glucose-oxidase method of GOD-Perid. Control groups (given doses of unmedicated tragacanth mucilage) were included with each test. The percentage reduction in the concentration of blood glucose was calculated by comparison with the simultaneous controls.

[4] = system: Rats (Sprague-Dawley); assay: Hypoglycaemic Activity in Fasted Rats; details: 100 mg/kg body weight per day, oral, 4 days, fasted male Sprague-Dawley rats
Protocol: Rats (Sprague-Dawley) of male sex each weighing between 171 and 174 g were given the test compound W hydrochloride orally in tragacanth mucilage at a dose of 100 mg/kg body weight per day for 4 days. Four hours after the third dose the animals were kept without food up to and beyond the fourth dose. Three hours after the last dose the animals were bled from the tail vein. The blood glucose levels were assessed by the glucose-oxidase method of GOD-Perid. Control groups (given doses of unmedicated tragacanth mucilage) were included with each test. The percentage reduction in the concentration of blood glucose was calculated by comparison with the simultaneous controls.

[5] = Mus musculus, po, 72 h, read-out: change in blood glucose compared with control

## CC(CCNC(=O)c1ccccc1NS(=O)(=O)c1ccc(Cl)cc1)n1ccnc1 (racemic) [WW, (±)-2-(4-chlorobenzenesulphonamido)-N-(3-imidazol-1-ylbutyl)benzamide]
[1]; [5]
  change in vivo at 200 mg/kg: -24%

## O=C(NCCCn1ccnc1)c1ccccc1NS(=O)(=O)c1ccc(Cl)cc1 [A, 2-(4-chlorobenzenesulphonamido)-N-(3-imidazol-1-ylpropyl)benzamide]
[1]; [5]
  change in vivo at 30 mg/kg: -13%
  change in vivo at 100 mg/kg: -49%
[2]; 30 mg/kg body weight per day
  % change in serum cholesterol compared with control: -13%
  % change in serum triglycerides compared with control: +67%
[2]; 100 mg/kg body weight per day
  % change in serum cholesterol compared with control: -35%
  % change in serum triglycerides compared with control: +36%
[2]; 200 mg/kg body weight per day
  % change in serum cholesterol compared with control: -82% and -83%

## O=C(NCCCn1ccnc1)c1ccccc1NS(=O)(=O)c1cccc(Cl)c1 [B, 2-(3-chlorobenzenesulphonamido)-N-(3-imidazol-1-ylpropyl)benzamide]
[1]; [5]
  change in vivo at 200 mg/kg: -60%

## O=C(NCCCn1ccnc1)c1ccccc1NS(=O)(=O)c1ccc(Br)cc1 [D, 2-(4-bromobenzenesulphonamido)-N-(3-imidazol-1-ylpropyl)benzamide]
[2]; 200 mg/kg body weight per day
  % change in serum cholesterol compared with control: -63%
  % change in serum triglycerides compared with control: -59%

## O=C(NCCCn1ccnc1)c1ccccc1NS(=O)(=O)c1ccccc1 [E, 2-(benzenesulphonamido)-N-(3-imidazol-1-ylpropyl)benzamide]
[2]; 200 mg/kg body weight per day
  % change in serum cholesterol compared with control: -31%
  % change in serum triglycerides compared with control: +55%

## Cc1ccc(S(=O)(=O)Nc2ccccc2C(=O)NCCCn2ccnc2)cc1 [F, 2-(4-methylbenzenesulphonamido)-N-(3-imidazol-1-yl-propyl)benzamide]
[1]; [5]
  change in vivo at 200 mg/kg: -32%
[2]; 200 mg/kg body weight per day
  % change in serum cholesterol compared with control: -72%
  % change in serum triglycerides compared with control: -60%

## Cc1ccc(S(=O)(=O)Nc2ccccc2C(=O)NCCCn2ccnc2)cc1C [G, 2-(3,4-dimethylbenzenesulphonamido)-N-(3-imidazol-1-ylpropyl)benzamide]
[1]; [5]
  change in vivo at 200 mg/kg: -25%

## O=C(NCCCn1ccnc1)c1cc(Cl)ccc1NS(=O)(=O)c1ccc(Cl)cc1 [I, 5-chloro-2-(4-chlorobenzenesulphonamido)-N-(3-imidazol-1-ylpropyl)benzamide]
[1]; [5]
  change in vivo at 200 mg/kg: -57%

## O=C(NCCCn1ccnc1)c1ccccc1NS(=O)(=O)c1cc(Cl)ccc1Cl [J, 2-(2,5-dichlorobenzenesulphonamido)-N-(3-imidazol-1-ylpropyl)benzamide]
[1]; [5]
  change in vivo at 200 mg/kg: -42%

## Cc1cn(CCCNC(=O)c2ccccc2NS(=O)(=O)c2ccc(Cl)cc2)cn1 [N, 2-(4-chlorobenzenesulphonamido)-N-[3-(4-methylimidazol-1-yl)propyl]benzamide]
[1]; [5]
  change in vivo at 200 mg/kg: -48%

## O=C(NCCCn1ccnc1)c1ccccc1NS(=O)(=O)c1ccc(F)cc1F [OO, 2-(2,4-difluorobenzenesulphonamido)-N-(3-imidazol-1-ylpropyl)benzamide]
[1]; [5]
  change in vivo at 200 mg/kg: -35%

## Cc1ccccc1S(=O)(=O)Nc1ccccc1C(=O)NCCCn1ccnc1 [QQ, 2-(2-methylbenzenesulphonamido)-N-(3-imidazol-1-ylpropyl)benzamide]
[1]; [5]
  change in vivo at 200 mg/kg: -43%

## O=C(NCCn1ccnc1)c1ccccc1NS(=O)(=O)c1ccc(Cl)cc1 [VV, 2-(4-chlorobenzenesulphonamido)-N-(2-imidazol-1-ylethyl)benzamide]
[1]; [5]
  change in vivo at 200 mg/kg: -53%

## Cl.O=C(NCCCn1ccnc1)c1ccccc1NS(=O)(=O)c1cccc(C(F)(F)F)c1 [W hydrochloride, 2-(3-trifluoromethylbenzenesulphonamido)-N-(3-imidazol-1-ylpropyl)benzamide hydrochloride]
[1]
  change in blood glucose compared with control: -62%
[1]; Mus musculus, po, 72 h, 5 mg/kg body weight per day, read-out: change in blood glucose compared with control
  change in vivo at 5 mg/kg: -25%
[1]; Mus musculus, po, 72 h, 10 mg/kg body weight per day, read-out: change in blood glucose compared with control
  change in vivo at 10 mg/kg: -29%
[1]; [5]
  change in vivo at 30 mg/kg: -58%
  change in vivo at 100 mg/kg: -50%
[1]; Mus musculus, po, 72 h, 500 mg/kg body weight per day, read-out: change in blood glucose compared with control
  change in vivo at 500 mg/kg: -46%
[3]; 2 mg/kg body weight per day
  % change in blood glucose compared with control: -25%
[3]; 5 mg/kg body weight per day
  % change in blood glucose compared with control: -28%
[3]; 100 mg/kg body weight per day
  % change in blood glucose compared with control: -50%
[4]
  % change in blood glucose compared with control: -26%

## O=C(NCCCn1ccnc1)c1ccccc1NS(=O)(=O)c1cccc(C(F)(F)F)c1 [W, 2-(3-trifluoromethylbenzenesulphonamido)-N-(3-imidazol-1-ylpropyl)benzamide]
[1]
  change in blood glucose compared with control: -68%

## O=C(NCCCn1ccnc1)c1ccccc1NS(=O)(=O)c1ccc(Cl)c(Cl)c1 [X, 2-(3,4-dichlorobenzenesulphonamido)-N-(3-imidazol-1-ylpropyl)benzamide]
[1]; [5]
  change in vivo at 200 mg/kg: -58%

## O=C(NCCCn1ccnc1)c1ccccc1NS(=O)(=O)c1ccc(Cl)cc1Cl [Y, 2-(2,4-dichlorobenzenesulphonamido)-N-(3-imidazol-1-ylpropyl)benzamide]
[1]; [5]
  change in vivo at 200 mg/kg: -51%
